Calls of active or inactive are those of the source. The calls are words filed in the database; no cut-off is given here.
What was measured:
[1] = system: HEK293; assay: Induction of apoptosis in HEK293 cells assessed as normal cells at 1 uM after 48 hrs by Annexin-V/FITC/PI dual staining based flow cytometry (reference value: 98.2 +/- 1.7%); type: functional, Homo sapiens
[2] = Cytotoxicity against African green monkey Vero cells assessed as reduction in cell viability after 48 hrs by MTT assay; type: toxicity, cell-based; conditions: chlorocebus sabaeus
[3] = system: HEK293; assay: Induction of apoptosis in HEK293 cells assessed as apoptotic cells at 2.4 uM after 48 hrs by Annexin-V/FITC/PI dual staining based flow cytometry (reference value: 0.07 +/- 0.2%); type: functional, Homo sapiens
[4] = system: HEK293; assay: Induction of apoptosis in HEK293 cells assessed as late apoptotic cells at 2.4 uM after 48 hrs by Annexin-V/FITC/PI dual staining based flow cytometry (reference value: 0.82 +/- 0.5%); type: functional, Homo sapiens
[5] = system: HEK293; assay: Induction of apoptosis in HEK293 cells assessed as early apoptotic cells at 2.4 uM after 48 hrs by Annexin-V/FITC/PI dual staining based flow cytometry (reference value: 0.19 +/- 1.4%); type: functional, Homo sapiens
[6] = system: HEK293; assay: Induction of apoptosis in HEK293 cells assessed as shrinkage after 48 hrs by DAPI staining based fluorescence microscopy; type: functional, cell-based; conditions: Homo sapiens
[7] = Cytotoxicity against human HeLa cells assessed as reduction in cell viability after 48 hrs by MTT assay; type: functional, cell-based
[8] = Binding affinity to DNA (unknown origin) assessed as hypochromism after 1 hr by UV-Vis absorption spectrophotometric analysis
[9] = system: HEK293; assay: Induction of apoptosis in HEK293 cells assessed as normal cells at 2.4 uM after 48 hrs by Annexin-V/FITC/PI dual staining based flow cytometry (reference value: 98.2 +/- 1.7%); type: functional, Homo sapiens
[10] = system: HEK293; assay: Induction of apoptosis in HEK293 cells assessed as bubble shaped nuclei after 48 hrs by DAPI staining based fluorescence microscopy; type: functional, cell-based; conditions: Homo sapiens
[11] = (§1) Cytotoxicity against HEK293 cells assessed as reduction in cell viability after 48 hrs by MTT assay; type: functional; conditions: Homo sapiens, HEK293, 48 h; read-out: LC50 (the source's name)
[12] = system: HEK293; assay: as §1; type: functional; conditions: Homo sapiens
[13] = target: DNA topoisomerase 2-alpha (Homo sapiens) (UniProt P11388); assay: Inhibition of human DNA topoisomerase 2alpha-mediated decatenation of kinetoplast DNA at 100 uM after 30 mins by agarose gel electrophoresis
[14] = (§2) Anticlonogenic activity against HEK293 cells assessed as inhibition of colony formation incubated for 48 hrs measured after 6 days by crystal violet staining based assay; type: functional; conditions: Homo sapiens, read-out: LC50 (the source's name)
[15] = system: HEK293; assay: as §2; type: functional; conditions: Homo sapiens
[16] = system: HEK293; assay: Induction of apoptosis in HEK293 cells assessed as early apoptotic cells at 5 uM after 48 hrs by Annexin-V/FITC/PI dual staining based flow cytometry (reference value: 0.19 +/- 1.4%); type: functional, Homo sapiens
[17] = system: HEK293; assay: Induction of apoptosis in HEK293 cells assessed as early apoptotic cells at 1 uM after 48 hrs by Annexin-V/FITC/PI dual staining based flow cytometry (reference value: 0.19 +/- 1.4%); type: functional, Homo sapiens
[18] = system: HEK293; assay: Potency index, ratio of etoposide LC50 to compound LC50 for anticlonogenic activity in HEK293 cells; type: functional, Homo sapiens
[19] = system: HEK293; assay: Induction of apoptosis in HEK293 cells assessed as deformation after 48 hrs by DAPI staining based fluorescence microscopy; type: functional, cell-based; conditions: Homo sapiens
[20] = Cytotoxicity against human A549 cells assessed as reduction in cell viability after 48 hrs by MTT assay; type: functional, cell-based; conditions: A549, 48 h
[21] = Cytotoxicity against human H357 cells assessed as reduction in cell viability after 48 hrs by MTT assay; type: functional, cell-based; conditions: H357, 48 h
[22] = Cytotoxicity against human MCF7 cells assessed as reduction in cell viability after 48 hrs by MTT assay; type: functional, cell-based; conditions: MCF7, 48 h
[23] = Cytotoxicity against human HCT116 cells assessed as reduction in cell viability after 48 hrs by MTT assay; type: functional, cell-based; conditions: HCT-116, 48 h
[24] = system: HEK293; assay: Induction of apoptosis in HEK293 cells assessed as normal cells at 5 uM after 48 hrs by Annexin-V/FITC/PI dual staining based flow cytometry (reference value: 98.2 +/- 1.7%); type: functional, Homo sapiens
[25] = system: HEK293; assay: Induction of apoptosis in HEK293 cells assessed as late apoptotic cells at 5 uM after 48 hrs by Annexin-V/FITC/PI dual staining based flow cytometry (reference value: 0.82 +/- 0.5%); type: functional, Homo sapiens
[26] = system: HEK293; assay: Induction of apoptosis in HEK293 cells assessed as apoptotic cells at 1 uM after 48 hrs by Annexin-V/FITC/PI dual staining based flow cytometry (reference value: 0.07 +/- 0.2%); type: functional, Homo sapiens
[27] = system: HEK293; assay: Induction of apoptosis in HEK293 cells assessed as apoptotic cells at 5 uM after 48 hrs by Annexin-V/FITC/PI dual staining based flow cytometry (reference value: 0.07 +/- 0.2%); type: functional, Homo sapiens
[28] = system: HEK293; assay: Induction of apoptosis in HEK293 cells after 48 hrs by Annexin V-FITC/propidium iodide staining based flow cytometry; type: functional, cell-based; conditions: Homo sapiens
[29] = system: HEK293; assay: Induction of apoptosis in HEK293 cells assessed as late apoptotic cells at 1 uM after 48 hrs by Annexin-V/FITC/PI dual staining based flow cytometry (reference value: 0.82 +/- 0.5%); type: functional, Homo sapiens

Chain of DNA topoisomerase 2-alpha (Homo sapiens) (P11388 whole entry): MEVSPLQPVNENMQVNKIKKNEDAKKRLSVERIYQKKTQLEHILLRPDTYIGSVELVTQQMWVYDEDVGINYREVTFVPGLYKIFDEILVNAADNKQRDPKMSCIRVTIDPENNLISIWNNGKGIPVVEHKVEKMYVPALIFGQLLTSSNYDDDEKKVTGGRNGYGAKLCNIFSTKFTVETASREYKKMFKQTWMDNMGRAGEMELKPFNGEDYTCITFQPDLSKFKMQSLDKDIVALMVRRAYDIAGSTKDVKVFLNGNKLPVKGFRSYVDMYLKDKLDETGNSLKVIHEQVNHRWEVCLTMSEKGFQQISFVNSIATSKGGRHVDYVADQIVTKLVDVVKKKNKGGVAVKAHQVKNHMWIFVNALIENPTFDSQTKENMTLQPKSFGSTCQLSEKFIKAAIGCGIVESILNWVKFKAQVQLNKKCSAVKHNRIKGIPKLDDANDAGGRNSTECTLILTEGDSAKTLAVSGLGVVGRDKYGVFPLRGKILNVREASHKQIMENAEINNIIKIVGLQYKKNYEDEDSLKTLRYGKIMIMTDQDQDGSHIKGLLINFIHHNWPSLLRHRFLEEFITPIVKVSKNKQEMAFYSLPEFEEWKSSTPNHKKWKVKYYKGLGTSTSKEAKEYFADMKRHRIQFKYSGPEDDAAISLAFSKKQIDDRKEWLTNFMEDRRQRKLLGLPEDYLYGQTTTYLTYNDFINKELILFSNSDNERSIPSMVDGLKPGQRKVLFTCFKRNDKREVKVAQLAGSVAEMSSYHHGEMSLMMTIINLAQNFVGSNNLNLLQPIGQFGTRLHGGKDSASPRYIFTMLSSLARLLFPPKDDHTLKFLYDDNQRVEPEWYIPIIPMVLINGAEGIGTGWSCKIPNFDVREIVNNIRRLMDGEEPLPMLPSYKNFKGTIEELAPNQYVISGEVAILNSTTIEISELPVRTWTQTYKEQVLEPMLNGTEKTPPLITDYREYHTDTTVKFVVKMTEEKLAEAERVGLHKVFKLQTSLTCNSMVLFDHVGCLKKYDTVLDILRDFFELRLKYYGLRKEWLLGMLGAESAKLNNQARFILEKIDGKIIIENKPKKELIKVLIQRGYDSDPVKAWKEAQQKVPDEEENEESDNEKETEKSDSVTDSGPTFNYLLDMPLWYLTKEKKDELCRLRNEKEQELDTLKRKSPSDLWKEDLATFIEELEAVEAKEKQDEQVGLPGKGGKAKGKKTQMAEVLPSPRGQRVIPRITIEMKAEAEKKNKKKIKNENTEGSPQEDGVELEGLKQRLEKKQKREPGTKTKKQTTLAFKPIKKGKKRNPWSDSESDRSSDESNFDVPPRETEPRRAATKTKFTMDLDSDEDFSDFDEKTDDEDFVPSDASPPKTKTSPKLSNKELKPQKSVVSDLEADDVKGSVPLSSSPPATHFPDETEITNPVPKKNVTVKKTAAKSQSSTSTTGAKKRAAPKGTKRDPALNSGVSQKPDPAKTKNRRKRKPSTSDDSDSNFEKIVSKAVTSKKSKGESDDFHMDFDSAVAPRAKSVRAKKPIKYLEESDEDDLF

O=c1cc(-c2ccc(Cl)cc2)nc2ccccn12
Activity [1]: 88.48%
CC50 at 48 h ([2]; Vero cells, read-out: LC50): 47500 nM
Activity ([2]; vero, 48 h): Dose-dependent effect
Activity [3]: 0.2%
Activity [4]: 12.8%
Activity [5]: 0%
Activity [6]: Dose-dependent effect
IC50 [7]: 2000 nM
Activity [8]: Active
Activity [9]: 87%
Activity [10]: Dose-dependent effect
CC50 [11]: 2400 nM
Activity [12]: Dose-dependent effect
Topoisomerase 2-alpha inhibition (active/inactive) [13]: Active
CC50 [14]: 2000 nM
inhibition [15]: Dose-dependent effect
Activity [16]: 0.42%
Activity [17]: 0.02%
RatioLC50 [18]: 5 - 10
Activity [19]: Dose-dependent effect
IC50 [20]: 2100 nM
IC50 [21]: 2300 nM
IC50 [22]: 1800 nM
IC50 [23]: 2500 nM
Activity [24]: 77.6%
Activity [25]: 18.56%
Activity [26]: 0.66%
Activity [27]: 3.41%
Activity [28]: Dose-dependent effect
Activity [29]: 10.83%

— ChEMBL document CHEMBL3865786, “Scaffold-hopping of bioactive flavonoids: Discovery of aryl-pyridopyrimidinones as potent anticancer agents that inhibit catalytic role of topoisomerase IIα” (Eur J Med Chem, 2016)
